Data reported in paper PMC10709135 (iScience, 2023).

Target: T1, fl-KcsA (full-length KcsA) (Streptomyces lividans, UniProt P0A334)
T1 sequence (P0A334 1-160): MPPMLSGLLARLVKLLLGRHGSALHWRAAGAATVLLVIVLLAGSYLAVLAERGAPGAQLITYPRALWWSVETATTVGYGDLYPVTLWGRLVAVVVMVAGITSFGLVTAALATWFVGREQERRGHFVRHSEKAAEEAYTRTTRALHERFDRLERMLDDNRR
Assay: SPR, KcsA immobilised on SAM chip
Type: binding
Details: specific blocker; type of constant not given

For `CCCC[N+](CCCC)(CCCC)CCCC` [TBA], the binding affinity was “The binding affinity of TBA to KcsA deduced from the present SPR study”.
